Results reported in publication PMC2010280 (British Journal of Cancer, 1980).

Key:
[1] = tested on: P388 leukaemic spleen colony-forming-units(LCFU-S); assay: Mouse spleen-colony assay (P388 leukaemia, femoral marrow LCFU-S); assay type: in vivo, male DBA/2 mice; conditions: 8 u/kg/day for 6 days (Day 1-6); 10^6 P388 cells i.v. on Day 0; osmotic minipump vs daily i.p. bolus; groups of 5 mice
Excerpt: MATERIALS AND METHODS Mice.-6-8-week-old male DBA/2 mice weighing 20-25 g were purchased from the Jackson Laboratory, Bar Harbor, Maine. They were maintained on normal laboratory chow and acid water ad. lib. Mouse leukaemia.-P388 lymphocytic leu- kaemia was supplied by Dr Daniel Griswold, Southern Research Institute, Birmingham, Alabama, and serially transplanted as ain ascites tumour at weekly intervals ([…] every 7 days in McCoy's 5a medium. Gibco, Grant Island, NY). […] Ill addition to an un- treated control group, 5 animals were implanted with minipumps containing 0.900 NaCl. Seven days after cell injection, the mice of the untreated control and treated groups were killed, femurs isolated, and marrow cells washed out with McCoy's 5a medium. Appro- priate dilutions of the leukaemic femoral marrow cells were injected i.v. into groups of 10 DBA/2 mice. Eight days later, the recipient mice were killed, spleens removed and fixed in Bouin's solution. The number of surface nacroscopic, leukaemic colony-forming units (LCFU-S) were counted with a dissecting microscope, and the fraction of surviving LCFU per femur determined. Pharmacokinetic studies.-On Day 0, 106 P388 ascites cells were injected i.v. into groups of 30 DBA/2 mice. […] For the C.i.p. group, blood samples from at least 3 mice were col- lected in heparinized tubes by heart puncture every day for 6 days. […]

[2] = Excerpt: MATERIALS AND METHODS Mice.-6-8-week-old male DBA/2 mice weighing 20-25 g were purchased from the Jackson Laboratory, Bar Harbor, Maine. They were maintained on normal laboratory chow and acid water ad. lib. Mouse leukaemia.-P388 lymphocytic leu- kaemia was supplied by Dr Daniel Griswold, Southern Research Institute, Birmingham, Alabama, and serially transplanted as ain ascites tumour at weekly intervals ([…] every 7 days in McCoy's 5a medium. Gibco, Grant Island, NY). […] Ill addition to an un- treated control group, 5 animals were implanted with minipumps containing 0.900 NaCl. Seven days after cell injection, the mice of the untreated control and treated groups were killed, femurs isolated, and marrow cells washed out with McCoy's 5a medium. Appro- priate dilutions of the leukaemic femoral marrow cells were injected i.v. into groups of 10 DBA/2 mice. Eight days later, the recipient mice were killed, spleens removed and fixed in Bouin's solution. The number of surface nacroscopic, leukaemic colony-forming units (LCFU-S) were counted with a dissecting microscope, and the fraction of surviving LCFU per femur determined. Pharmacokinetic studies.-On Day 0, 106 P388 ascites cells were injected i.v. into groups of 30 DBA/2 mice. […] For the C.i.p. group, blood samples from at least 3 mice were col- lected in heparinized tubes by heart puncture every day for 6 days. […] At least 3 mice were killed at each sampling time. Blood samples were centrifuged at 2,000 rev/min and 4?C for 10 min and the plasmas separated and immediately stored at -20?C. […] Data analysis-Statistical analysis of the differences betwNeen LCFU dose-response (i.e., drug dose vs fraction of CFU surviving per femur) curves for the two different treat- ments used the analysis of covariance method (Snedecor & Cochran, 1979). […] I. Intravenous administration. Cancer Chemother. Pharmacol., 1, 177. […] II. Intra- cavitary administration. Cancer Chemother. Pharmacol., 2, 127. BAKER, L. H., OPIPARI, M. I., WILSON, H., BOTTOMLEY, R. & COLTMAN, C. A., JR. […] Obstet. Gynecol., 52, 146. BARRANCO, S. C. […] Ed. Carter, Crooke & Umezawa. New York: Academic Press. p. […] Cancer Res., 36, 1418. MELLETT, L. B. (1973) Considerations in design of optimal therapeutic schedules, Pharmacology and the Future of Man. In Problems of Therapy, Vol. 3. Ed. Okita & Acheson. Basel: S. Karger. p. 332. METZLER, C. M. (1969) Technical Report 7292/69/ 7292/005. […] Proc. AACR and ASCO, 20, 202. […] Eds. Carter, Crooke & Umezawa. New York: Academic Press. p. 117. […] Cancer Treat. Rep., 62, 2011. SKIPPER, H. E., SCHABEL, F. M., JR & WILCOX, W. S. (1967) Experimental evaluation of potential anticancer agents. XXI. Scheduling of arabinosyl cytosine to take advantage of its S-phase speci- ficity against leukaemia cells. Cancer Chemother Rep., 51, 125. […]
[3] = Bleomycin stability in the Alzet osmotic minipump; conditions: in 0.9% NaCl, 37 C, for at least 6 days (determined for 7 days in saline)

Substance: bleomycin
- greater reduction of LCFU-S by continuous i.p. infusion than by intermittent i.p. bolus at identical dose [1]: 0.5 log
- period during which plasma concentrations greater than 0.6 mu/ml are maintained ([2]; after continuous i.p. infusion (C.i.p.), 8 u/kg/day): about 6 days
- period during which bleomycin plasma concentration remains above 0.6 mu/ml ([2]; after intermittent i.p. bolus (I.i.p.) administration, 8 u/kg/day): about 92 min
- constant bleomycin plasma level ([2]; continuous i.p. infusion (osmotic minipump), 8 u/kg/day for 6 days, P388-bearing mice, radioimmunoassay, pooled plasma of groups of 3 mice, daily samples): 0.62 +/- 0.03 mu/ml
- peak bleomycin plasma level ([2]; intermittent i.p. bolus, 8 u/kg/day, at 5 min after the dose, Day 5, radioimmunoassay): 32 mu/ml
- stability inside the osmotic minipump [3]: 100%
